Test results: ChEMBL document CHEMBL3877319, “Synthesis of Ofornine mimics from natural product l-vasicine as anti-hypertensive agents” (Bioorg Med Chem, 2017)

Key:
Rattus norvegicus [1] = experiment: Anti-hypertensive activity in Wistar rat assessed as systolic blood pressure at 10 mg/kg, iv after 60 mins (reference value: 110 to 124.6 mmHg); format: functional
Mus musculus [2] = experiment: Acute toxicity in Swiss mouse assessed as serum triglyceride level up to 2000 mg/kg, po measured on day 14 post dose (reference value: […]); format: organism-based; conditions: in vivo
Rattus norvegicus [3] = experiment: Anti-hypertensive activity in Wistar rat assessed as diastolic blood pressure at 10 mg/kg, iv after 180 mins (reference value: 77.15 to 94.4 mmHg); format: functional
Mus musculus [4] = experiment: Acute toxicity in Swiss mouse assessed as AST level in serum up to 2000 mg/kg, po measured on day 14 post dose (reference value: 162.53 +/- 5.455 IU/L); format: organism-based; conditions: in vivo
Rattus norvegicus [5] = experiment: Anti-hypertensive activity in Wistar rat assessed as systolic blood pressure at 10 mg/kg, iv after 120 mins (reference value: 110 to 124.6 mmHg); format: functional
Rattus norvegicus [6] = experiment: Anti-hypertensive activity in Wistar rat assessed as diastolic blood pressure at 10 mg/kg, iv after 60 mins (reference value: 77.15 to 94.4 mmHg); format: functional
Mus musculus [7] = experiment: Acute toxicity in Swiss mouse assessed as total protein level in serum up to 2000 mg/kg, po measured on day 14 post dose (reference value: 4.844 +/- 0.222 g/dl); format: organism-based; conditions: in vivo
Mus musculus [8] = experiment: Acute toxicity in Swiss mouse assessed as basophil level up to 2000 mg/kg, po measured on day 14 post dose (reference value: 0.1%); format: organism-based; conditions: in vivo
Mus musculus [9] = experiment: Acute toxicity in Swiss mouse assessed as serum creatinine level up to 2000 mg/kg, po measured on day 14 post dose (reference value: 0.418 +/- 0.0259 mg/dl); format: organism-based; conditions: in vivo
Rattus norvegicus [10] = experiment: Anti-hypertensive activity in Wistar rat assessed as diastolic blood pressure at 10 mg/kg, iv after 150 mins (reference value: 77.15 to 94.4 mmHg); format: functional
Mus musculus [11] = experiment: Acute toxicity in Swiss mouse assessed as eosinophil level up to 2000 mg/kg, po measured on day 14 post dose (reference value: 2.233%); format: organism-based; conditions: in vivo
Rattus norvegicus [12] = experiment: Anti-hypertensive activity in Wistar rat assessed as systolic blood pressure at 10 mg/kg, iv after 150 mins (reference value: 110 to 124.6 mmHg); format: functional
Rattus norvegicus [13] = experiment: Anti-hypertensive activity in iv dosed Wistar rat assessed as decrease in blood pressure up to 180 mins; format: functional, organism-based
Mus musculus [14] = experiment: Acute toxicity in Swiss mouse assessed as effect on water consumption up to 2000 mg/kg, po measured up to 13 days post dose; format: organism-based; conditions: in vivo, 312 h
Mus musculus [15] = experiment: Acute toxicity in Swiss mouse assessed as hematocrit up to 2000 mg/kg, po measured on day 14 post dose (reference value: 40.114 +/- 14.74%); format: organism-based; conditions: in vivo
Mus musculus [16] = experiment: Acute toxicity in Swiss mouse assessed as lymphocytes level up to 2000 mg/kg, po measured on day 14 post dose (reference value: 79.433%); format: organism-based; conditions: in vivo
Mus musculus [17] = experiment: Acute toxicity in Swiss mouse assessed as change in body weight up to 2000 mg/kg, po measured once in a week up to 13 days post dose; format: organism-based; conditions: in vivo, 312 h
Mus musculus [18] = experiment: Acute toxicity in Swiss mouse assessed as neutrophil level up to 2000 mg/kg, po measured on day 14 post dose (reference value: 14.56%); format: organism-based; conditions: in vivo
Mus musculus [19] = experiment: Acute toxicity in Swiss mouse assessed as RBC count up to 2000 mg/kg, po measured on day 14 post dose (reference value: 8.97 +/- 3.15 10^6/microL); format: organism-based; conditions: in vivo
Mus musculus [20] = experiment: Acute toxicity in Swiss mouse assessed as change in general appearance up to 2000 mg/kg, po measured up to 13 days post dose; format: organism-based; conditions: in vivo, 312 h
Mus musculus [21] = experiment: Acute toxicity in Swiss mouse assessed as cholesterol level in serum up to 2000 mg/kg, po measured on day 14 post dose (reference value: […]); format: organism-based; conditions: in vivo
Mus musculus [22] = experiment: Acute toxicity in Swiss mouse assessed as monocytes level up to 2000 mg/kg, po measured on day 14 post dose (reference value: 3.66%); format: organism-based; conditions: in vivo
Mus musculus [23] = experiment: Acute toxicity in Swiss mouse assessed as ALT level in serum up to 2000 mg/kg, po measured on day 14 post dose (reference value: 49.87 +/- 3.277 IU/L); format: organism-based; conditions: in vivo
Mus musculus [24] = experiment: Acute toxicity in Swiss mouse assessed as mean corpuscular hemoglobin up to 2000 mg/kg, po measured on day 14 post dose (reference value: 13.78 +/- 5.29 pg); format: organism-based; conditions: in vivo
Rattus norvegicus [25] = experiment: Anti-hypertensive activity in Wistar rat assessed as systolic blood pressure at 10 mg/kg, iv after 180 mins (reference value: 110 to 124.6 mmHg); format: functional
Mus musculus [26] = experiment: Acute toxicity in Swiss mouse assessed as mean corpuscular volume up to 2000 mg/kg, po measured on day 14 post dose (reference value: 44.85 +/- 17.65 fL); format: organism-based; conditions: in vivo
Mus musculus [27] = experiment: Acute toxicity in Swiss mouse assessed as serum urea level up to 2000 mg/kg, po measured on day 14 post dose (reference value: 55.157 +/- 2.769 mg/dl); format: organism-based; conditions: in vivo
Rattus norvegicus [28] = experiment: Anti-hypertensive activity in Wistar rat assessed as diastolic blood pressure at 10 mg/kg, iv after 30 mins (reference value: 77.15 to 94.4 mmHg); format: functional
Rattus norvegicus [29] = experiment: Anti-hypertensive activity in Wistar rat assessed as systolic blood pressure at 10 mg/kg, iv after 5 mins (reference value: 110 to 124.6 mmHg); format: functional
Rattus norvegicus [30] = experiment: Anti-hypertensive activity in Wistar rat assessed as diastolic blood pressure at 10 mg/kg, iv after 120 mins (reference value: 77.15 to 94.4 mmHg); format: functional
Mus musculus [31] = experiment: Acute toxicity in Swiss mouse assessed as uric acid level in serum up to 2000 mg/kg, po measured on day 14 post dose (reference value: […]); format: organism-based; conditions: in vivo
Rattus norvegicus [32] = experiment: Anti-hypertensive activity in Wistar rat assessed as systolic blood pressure at 10 mg/kg, iv after 30 mins (reference value: 110 to 124.6 mmHg); format: functional
Mus musculus [33] = experiment: Acute toxicity in Swiss mouse assessed as mortality up to 2000 mg/kg, po measured up to 13 days post dose; format: organism-based; conditions: in vivo, 312 h
Mus musculus [34] = experiment: Acute toxicity in Swiss mouse assessed as serum glucose level up to 2000 mg/kg, po measured on day 14 post dose (reference value: 105.78 +/- 5.217 mg/dl); format: organism-based; conditions: in vivo
Rattus norvegicus [35] = experiment: Anti-hypertensive activity in Wistar rat assessed as systolic blood pressure at 10 mg/kg, iv after 15 mins (reference value: 110 to 124.6 mmHg); format: functional
Mus musculus [36] = experiment: Acute toxicity in Swiss mouse assessed as effect on feed up to 2000 mg/kg, po measured up to 13 days post dose; format: organism-based; conditions: in vivo, 312 h
Mus musculus [37] = experiment: Acute toxicity in Swiss mouse assessed as WBC count up to 2000 mg/kg, po measured on day 14 post dose (reference value: 8.35 +/- 4.53 10^3/microL); format: organism-based; conditions: in vivo
Rattus norvegicus [38] = experiment: Anti-hypertensive activity in Wistar rat assessed as diastolic blood pressure at 10 mg/kg, iv after 5 mins (reference value: 77.15 to 94.4 mmHg); format: functional
Mus musculus [39] = experiment: Acute toxicity in Swiss mouse assessed as hemoglobin level up to 2000 mg/kg, po measured on day 14 post dose (reference value: 12.342 +/- 4.42 g/dl); format: organism-based; conditions: in vivo
Rattus norvegicus [40] = experiment: Anti-hypertensive activity in Wistar rat assessed as diastolic blood pressure at 10 mg/kg, iv after 15 mins (reference value: 77.15 to 94.4 mmHg); format: functional
Mus musculus [41] = experiment: Acute toxicity in Swiss mouse assessed as platelet level up to 2000 mg/kg, po measured on day 14 post dose (reference value: 1542.71 +/- 474.34 10^3/microL); format: organism-based; conditions: in vivo

SMILES: O=C(c1ccccc1Nc1ccncc1)N1CC[C@H](O)C1
- Activity (Rattus norvegicus [1]): 79.29 mmHg
- Activity (Mus musculus [2]): 89.6 mg/dL
- Activity (Rattus norvegicus [3]): 79.06 mmHg
- Activity (Mus musculus [4]): 145.84 IU/L
- Activity (Rattus norvegicus [5]): 85.46 mmHg
- Activity (Rattus norvegicus [6]): 64.09 mmHg
- Activity (Mus musculus [7]): 5.224 g/dL
- Activity (Mus musculus [8]): 0.0714%
- Activity (Mus musculus [9]): 0.435 mg/dL
- Activity (Rattus norvegicus [10]): 73 mmHg
- Activity (Mus musculus [11]): 3.457%
- Activity (Rattus norvegicus [12]): 87.13 mmHg
- Activity (Rattus norvegicus [13]): Dose-dependent effect
- Activity (Mus musculus [14]): Non-Toxic
- Activity (Mus musculus [15]): 40.1%
- Activity (Mus musculus [16]): 84.514%
- Activity (Mus musculus [17]): Non-Toxic
- Activity (Mus musculus [18]): 8.828%
- Activity (Mus musculus [19]): 9.684 ×10⁶ /uL
- Activity (Mus musculus [20]): Non-Toxic
- Activity (Mus musculus [21]): 83 mg/dL
- Activity (Mus musculus [22]): 3.128%
- Activity (Mus musculus [23]): 50.587 IU/L
- Activity (Mus musculus [24]): 13.77 pg
- Activity (Rattus norvegicus [25]): 108.8 mmHg
- Activity (Mus musculus [26]): 41.3 fL
- Activity (Mus musculus [27]): 54.885 mg/dL
- Activity (Rattus norvegicus [28]): 62.55 mmHg
- Activity (Rattus norvegicus [29]): 88 mmHg
- Activity (Rattus norvegicus [30]): 69.81 mmHg
- Activity (Mus musculus [31]): 2.81 mg/dL
- Activity (Rattus norvegicus [32]): 80.19 mmHg
- Activity (Mus musculus [33]): Non-Toxic
- Activity (Mus musculus [34]): 111.51 mg/dL
- Activity (Rattus norvegicus [35]): 82.41 mmHg
- Activity (Mus musculus [36]): Non-Toxic
- Activity (Mus musculus [37]): 10.185 ×10³ /uL
- Activity (Rattus norvegicus [38]): 66.01 mmHg
- Activity (Mus musculus [39]): 13.342 g/dL
- Activity (Rattus norvegicus [40]): 64.33 mmHg
- Activity (Mus musculus [41]): 1458.42 ×10³ /uL
